From patent publication US9790233B2, “Compositions and methods of modulating 15-PGDH activity” (CASE WESTERN RESERVE UNIVERSITY, priority 2012, dated 2017)
Like-named read-outs stand apart in the source and are kept apart here.

Assays:
Assay type in all cases: cell-based
[1] = test system: 15-PGDH luciferase fusion construct in LS174T reporter cell line; test: 15-PGDH-luciferase fusion gene reporter induction, LS174T cells; settings: Homo sapiens
[2] = test system: 15-PGDH luciferase fusion construct in Vaco503 reporter cell line; test: 15-PGDH-luciferase fusion gene reporter induction, V503 cells; settings: read-out: V503 reporter activity ([…]), […]
[3] = test system: 15-PGDH luciferase fusion construct in V9m reporter cell line; test: 15-PGDH-luciferase fusion gene reporter induction, V9m cells; settings: read-out: V9M reporter activity ([…]), […]
[4] = read-out: LS174T reporter activity ([…]), […], % increased luciferase activity over basal level, read-out: LS174T reporter activity (2.5 uM)
[5] = read-out: LS174T reporter activity ([…]), […], % increased luciferase activity over basal level, read-out: LS174T reporter activity (7.5 uM)
[6] = % increased luciferase activity over basal level, read-out: V503 reporter activity (2.5 uM)
[7] = % increased luciferase activity over basal level, read-out: V503 reporter activity (7.5 uM)
[8] = % increased luciferase activity over basal level, 100 = doubling, read-out: V9M reporter activity (2.5 uM)
[9] = % increased luciferase activity over basal level, 100 = doubling, read-out: V9M reporter activity (7.5 uM)
[10] = read-out: LS174T reporter activity ([…]), […], % induction over basal level, Table 17, read-out: LS174T reporter activity (2.5 μM)
[11] = read-out: lS174T reporter activity ([…]), […], % induction over basal level, Table 17, read-out: lS174T reporter activity (7.5 μM)
[12] = % induction over basal level, Table 17, read-out: V503 reporter activity (2.5 μM)
[13] = % induction over basal level, Table 17, read-out: V503 reporter activity (7.5 μM)
[14] = % induction of luciferase activity over basal level, Table 17, read-out: V9M reporter activity (2.5 μM)
[15] = % induction over basal level, Table 17, read-out: V9M reporter activity (7.5 μM)

SMILES	activation at […] [1, 4]	activation at […] [1, 5]	activation at […] [2, 6]	activation at […] [2, 7]	activation at […] [3, 8]	activation at […] [3, 9]	activation at […] [1, 10]	activation at […] [1, 11]	activation at […] [2, 12]	activation at […] [2, 13]	activation at […] [3, 14]	activation at […] [3, 15]
CCCC[S+]([O-])c1sc2ncccc2c1N (stereo not drawn) [SW208064, 2-(butylsulfinyl)thieno[2,3-b]pyridin-3-amine]	126%	96.2%	126%	96.2%	82.6%	50.1%						
CCCC[S+]([O-])c1sc2nc(-c3ccccc3)nc(-c3ccccc3)c2c1N (stereo not drawn) [SW208065, 6-(butylsulfinyl)-2,4-diphenylthieno[2,3-d]pyrimidin-5-amine]	73.5%	87.7%	73.5%	87.7%	120%	119%						
CCCCSc1ncccc1N [SW208068, 2-(butylthio)pyridin-3-amine]	14.9%	15%	14.9%	15%	12.9%	12.3%						
CCCC[S+]([O-])c1ncccc1N (stereo not drawn) [SW208070, 2-(butylsulfinyl)pyridin-3-amine]	19.7%	15.4%	19.7%	15.4%	22.6%	12.1%						
CCCCS(=O)(=O)c1sc2nc(-c3cccs3)cc(-c3ccccc3)c2c1N [SW208078, 2-(butylsulfonyl)-4-phenyl-6-(thiophen-2-yl)thieno[2,3-b]pyridin-3-amine]	72.7%	40%	87.7%	83.8%	36.2%	34.9%						
CCCCC[S+]([O-])c1sc2nc(-c3cccs3)cc(-c3ccccc3)c2c1N (stereo not drawn) [SW208080, 2-(pentylsulfinyl)-4-phenyl-6-(thiophen-2-yl)thieno[2,3-b]pyridin-3-amine]	118%	117%	104%	127%	102%	98.7%						
CCCCCC[S+]([O-])c1sc2nc(-c3cccs3)cc(-c3ccccc3)c2c1N (stereo not drawn) [SW208081, 2-(hexylsulfinyl)-4-phenyl-6-(thiophen-2-yl)thieno[2,3-b]pyridin-3-amine]	64.5%	95.1%	90.5%	105%	37.8%	63.6%						
COc1ccc(N(CC(=O)N/N=C/c2cccnc2)S(=O)(=O)c2ccccc2)c(OC)c1 [compound 396087]							4.37%	10.2%	17.2%	30.8%	-8.51%	10.1%
CCOC(=O)c1sc2nc(-c3ccccc3)cc(-c3ccccc3)c2c1N [compound 405320]	9.95%	-2.57%	-7.73%	-33.7%	8.77%	-15.4%						
CCc1ccccc1NC(=O)CN(c1ccc(OC)cc1OC)S(=O)(=O)c1ccccc1 [compound 407572]							2.22%	6.94%	17.2%	35.9%	-8.45%	-6.12%
COc1ccc(N(CC(=O)Nc2cccc(Cl)c2)S(=O)(=O)c2ccc(OC)c(OC)c2)cc1 [compound 408961]							2.46%	-4.51%	11.7%	17.6%	-12.4%	0.56%
CCOC(=O)c1sc2nc(-c3cccs3)cc(-c3ccc(F)cc3)c2c1N [compound 413423]	3.41%	3.91%	7.89%	3.13%	-5.65%	-8.76%						
O=C(CN(c1ccc(F)cc1)S(=O)(=O)c1ccccc1)Nc1cccnc1 [compound 414177]							9.51%	-0.62%	-2.8%	-5.73%	10.6%	7.72%
O=C(CN(c1ccccc1)S(=O)(=O)c1ccccc1)Nc1ccccn1 [compound 414183]							5.35%	-4.77%	11.5%	37.2%	-9.15%	-3.89%
COc1ccc(OC)c(NC(=O)CN(c2ccc([N+](=O)[O-])cc2)S(=O)(=O)c2ccccc2)c1 [compound 414195]							-1.15%	2.34%	13.1%	19.5%	-13.9%	-16.8%
COc1ccc(S(=O)(=O)N(CC(=O)Nc2ccccc2)c2ccccc2)cc1 [compound 474738]							-0.36%	3.5%	17%	24.6%	-7.27%	3.48%
COc1ccc(NC(=O)CN(c2ccccc2)S(=O)(=O)c2ccccc2)cc1 [compound 474759]							5.54%	-0.03%	-5.04%	-12.7%	2.58%	6.4%
COc1ccc(OC)c(N(CC(=O)Nc2ccccc2F)S(=O)(=O)c2ccccc2)c1 [compound 503270]							12.3%	32.8%	29.9%	42.1%	-4.47%	24.1%
COc1ccccc1N(CC(=O)Nc1ccc(F)c(Cl)c1)S(=O)(=O)c1ccccc1 [compound 537833]							4.94%	9.04%	42.3%	73.2%	-7.54%	-7.44%
COc1ccc(N(CC(=O)Nc2ccc(C(C)=O)cc2)S(=O)(=O)c2ccccc2)cc1Cl [compound 539430]							5.62%	10.4%	38.8%	103%	21.3%	21.4%
O=C(CN(c1ccccn1)S(=O)(=O)c1ccccc1)Nc1ccccc1 [compound 543512]							18.1%	8.33%	-4.56%	-4.26%	36.8%	79.6%
COc1ccc(S(=O)(=O)N(CC(=O)Nc2ccc(Cl)cc2Cl)c2ccccc2)cc1 [compound 543716]							3.26%	-2.08%	-8.04%	-8.6%	4.2%	-0.14%
COc1ccc(N(CC(=O)Nc2ccc(C(=O)O)cc2)S(=O)(=O)c2ccccc2)cc1 [compound 742790]							12.8%	17.3%	5.94%	34.4%	13.8%	23.1%
CCOc1ccccc1N(CC(=O)Nc1ccccc1Br)S(=O)(=O)c1ccc(C)cc1 [compound 771074]							20.7%	20.6%	23%	39.5%	13.5%	24.7%
COc1ccc(OC)c(N(CC(=O)Nc2ccccc2Br)S(=O)(=O)c2ccc(C)cc2)c1 [compound 771132]							14%	13.5%	24.8%	40.8%	-2.26%	12.2%
COc1ccc(N(CC(=O)Nc2ccccc2Br)S(=O)(=O)c2ccc(C)cc2)c(OC)c1 [compound 771138]							13.6%	9.23%	34.4%	72.6%	-4.36%	6.75%
COc1ccc(OC)c(N(CC(=O)Nc2ccc(I)cc2)S(=O)(=O)c2ccc(C)cc2)c1 [compound 771146]							-31.6%	-68.8%	-49.7%	-86.6%	-38.1%	-78.3%
COc1ccc(N(CC(=O)Nc2ccc(Br)cc2)S(=O)(=O)c2ccccc2)c(OC)c1 [compound 785161]							10.7%	-41.9%	56.7%	-52.5%	0.54%	3.48%
COc1ccc(OC)c(N(CC(=O)Nc2cccc(Cl)c2)S(=O)(=O)c2ccc(OC)c(OC)c2)c1 [compound 785254]							2.93%	4.29%	16.1%	28.3%	-16.1%	-8.48%
